# Test results published in patent publication US20260262643A1, “HERBICIDAL BENZOXAZINES” (FMC CORPORATION, priority 2022, published 2026).
# What was measured:
# barnyardgrass [1] = experiment: Test C preemergence; assay type: in vivo, Echinochloa crusgalli; conditions: for Barnyardgrass plant response rating: preemergence; for Plant response rating, Barnyardgrass: Preemergence
# Method in brief: (§1)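 Pre: seeds in loam/sand, directed soil spray. Post: 1–2 leaf plants, 2–10 cm. Cmpd in non-phytotoxic solvent + surfactant. Greenhouse 10 d; visual rating vs untreated, 0 = none, 100 = complete control.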
# blackgrass [2] = experiment: Test C preemergence; assay type: in vivo, Alopecurus myosuroides; conditions: for Blackgrass plant response rating: preemergence; for Plant response rating, Blackgrass: Preemergence
# Method in brief: as §1
# corn [3] = experiment: Test C preemergence; assay type: in vivo, Zea mays; conditions: for Corn plant response rating: preemergence, 0 to 100 scale (0 no effect, 100 complete control)
# Method in brief: as §1
# green foxtail [4] = experiment: Test C preemergence; assay type: in vivo, Setaria viridis; conditions: for Foxtail, Green plant response rating: preemergence, 0 to 100 scale (0 no effect, 100 complete control)
# Method in brief: as §1
# kochia [5] = experiment: Test C preemergence; assay type: in vivo, Bassia scoparia; conditions: for Kochia plant response rating: preemergence, 0 to 100 scale (0 no effect, 100 complete control)
# Method in brief: as §1
# oat, wild [6] = experiment: Test C preemergence; assay type: in vivo, Avena fatua; conditions: for Oat, Wild plant response rating: preemergence, 0 to 100 scale (0 no effect, 100 complete control)
# Method in brief: as §1
# pigweed, palmer [7] = experiment: Test C preemergence; assay type: in vivo, Amaranthus palmeri; conditions: for Pigweed, Palmer plant response rating: preemergence, 0 to 100 scale (0 no effect, 100 complete control)
# Method in brief: as §1
# ragweed [8] = experiment: Test C preemergence; assay type: in vivo, Ambrosia artemisiifolia; conditions: for Ragweed plant response rating: preemergence, 0 to 100 scale (0 no effect, 100 complete control)
# Method in brief: as §1
# ryegrass, Italian [9] = experiment: Test C preemergence; assay type: in vivo, Lolium multiflorum; conditions: for Ryegrass, Italian plant response rating: preemergence, 0 to 100 scale (0 no effect, 100 complete control)
# Method in brief: as §1
# soybean [10] = experiment: Test C preemergence; assay type: in vivo, Glycine max; conditions: for Soybean plant response rating: preemergence, 0 to 100 scale (0 no effect, 100 complete control)
# Method in brief: as §1
# wheat [11] = experiment: Test C preemergence; assay type: in vivo, Triticum aestivum; conditions: for Wheat plant response rating: preemergence, 0 to 100 scale (0 no effect, 100 complete control)
# Method in brief: as §1
# barnyardgrass [12] = experiment: Test C postemergence; assay type: in vivo, Echinochloa crusgalli; conditions: 10 days
# Method in brief: as §1
# blackgrass [13] = experiment: Test C postemergence; assay type: in vivo, Alopecurus myosuroides; conditions: 10 days
# Method in brief: as §1
# corn [14] = experiment: Test C postemergence; assay type: in vivo, Zea mays; conditions: 10 days
# Method in brief: as §1
# green foxtail [15] = experiment: Test C postemergence; assay type: in vivo, Setaria viridis; conditions: 10 days
# Method in brief: as §1
# kochia [16] = experiment: Test C postemergence; assay type: in vivo, Bassia scoparia; conditions: 10 days
# Method in brief: as §1
# oat, wild [17] = experiment: Test C postemergence; assay type: in vivo, Avena fatua; conditions: 10 days
# Method in brief: as §1
# pigweed, palmer [18] = experiment: Test C postemergence; assay type: in vivo, Amaranthus palmeri; conditions: 10 days
# Method in brief: as §1
# ragweed [19] = experiment: Test C postemergence; assay type: in vivo, Ambrosia artemisiifolia; conditions: 125 g ai/ha, 10 days
# Method in brief: as §1
# ryegrass, Italian [20] = experiment: Test C postemergence; assay type: in vivo, Lolium multiflorum; conditions: 125 g ai/ha, 10 days
# Method in brief: as §1
# soybean [21] = experiment: Test C postemergence; assay type: in vivo, Glycine max; conditions: 125 g ai/ha, 10 days
# Method in brief: as §1
# wheat [22] = experiment: Test C postemergence; assay type: in vivo, Triticum aestivum; conditions: 125 g ai/ha, 10 days
# Method in brief: as §1
# galium = experiment: Test C postemergence; assay type: in vivo, Galium aparine; conditions: 10 days
# Method in brief: as §1
# horseweed = experiment: Test C postemergence; assay type: in vivo, Erigeron canadensis; conditions: 10 days
# Method in brief: as §1
# barnyardgrass [23] = experiment: Test D flooded paddy test; assay type: in vivo, Echinochloa crus-galli; conditions: 250 g ai/ha, applied to paddy water, visual rating after 13 to 14 days, scale 0 to 100 (0 no effect, 100 complete control)
# Method in brief: (§2)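 At the 2-leaf stage, floodwater 3 cm deep received the test compound; that depth persisted throughout. Plants scored visually 13 to 14 days on, 0 (no effect) to 100 (complete control), dash indicating no result.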
# ducksalad = experiment: Test D flooded paddy test; assay type: in vivo, Heteranthera limosa; conditions: 250 g ai/ha, applied to paddy water, visual rating after 13 to 14 days, scale 0 to 100 (0 no effect, 100 complete control)
# Method in brief: as §2
# rice = experiment: Test D flooded paddy test; assay type: in vivo, Oryza sativa; conditions: 250 g ai/ha, applied to paddy water, visual rating after 13 to 14 days, scale 0 to 100 (0 no effect, 100 complete control)
# Method in brief: as §2
# sedge, umbrella = experiment: Test D flooded paddy test; assay type: in vivo, Cyperus difformis; conditions: 250 g ai/ha, applied to paddy water, visual rating after 13 to 14 days, scale 0 to 100 (0 no effect, 100 complete control)
# Method in brief: as §2
# [24] = 500 g ai/ha, 0 to 100 scale (0 no effect, 100 complete control)
# [25] = 125 g ai/ha, 0 to 100 scale, 0 no effect, 100 complete control
# [26] = Preemergence, 125 g ai/ha, 0 to 100 scale, 0 no effect, 100 complete control
# [27] = 500 g ai/ha, postemergence, 0 to 100 scale (0 no effect, 100 complete control)
# [28] = Postemergence, 125 g ai/ha, 0 to 100 scale (0 no effect, 100 complete control)
# [29] = Postemergence, 0 to 100 scale (0 no effect, 100 complete control)
# [30] = 500 g ai/ha, visual rating after 10 days, 0 to 100 scale (0 no effect, 100 complete control)
# [31] = Test C, 125 g ai/ha, 0 to 100 scale (0 no effect, 100 complete control)
# [32] = 125 g ai/ha, postemergence, 0 to 100 scale, 0 no effect, 100 complete control
# [33] = Postemergence, 500 g ai/ha, visual 0 to 100 scale (0 no effect, 100 complete control)
# [34] = postemergence, 0 to 100 scale, 0 no effect, 100 complete control
compound,measurement,setting,value
COC[C@H]1CN(C(=O)c2cc(-n3cnc(C(C)C)n3)cc3c2OCCO3)c2cccc(Cl)c2O1 [Compound 395],Barnyardgrass plant response rating,barnyardgrass [1]; [24],100
same,"Plant response rating, Barnyardgrass",barnyardgrass [1]; [25],80
same,Blackgrass plant response rating,blackgrass [2]; [24],90
same,"Plant response rating, Blackgrass",blackgrass [2]; [25],50
same,Corn plant response rating,corn [3]; 500 g ai/ha,50
same,"Plant response rating, Corn",corn [3]; [26],30
same,"Foxtail, Green plant response rating",green foxtail [4]; 500 g ai/ha,100
same,"Plant response rating, Foxtail, Green",green foxtail [4]; [26],100
same,Kochia plant response rating,kochia [5]; 500 g ai/ha,100
same,"Plant response rating, Kochia",kochia [5]; [26],100
same,"Oat, Wild plant response rating","oat, wild [6]; 500 g ai/ha",90
same,"Plant response rating, Oat, Wild","oat, wild [6]; [26]",50
same,"Pigweed, Palmer plant response rating","pigweed, palmer [7]; 500 g ai/ha",100
same,"Plant response rating, Pigweed, Palmer","pigweed, palmer [7]; [26]",100
same,Ragweed plant response rating,ragweed [8]; 500 g ai/ha,90
same,"Plant response rating, Ragweed",ragweed [8]; [26],90
same,"Ryegrass, Italian plant response rating","ryegrass, Italian [9]; 500 g ai/ha",90
same,"Plant response rating, Ryegrass, Italian","ryegrass, Italian [9]; [26]",80
same,Soybean plant response rating,soybean [10]; 500 g ai/ha,100
same,"Plant response rating, Soybean",soybean [10]; [26],70
same,Wheat plant response rating,wheat [11]; 500 g ai/ha,80
same,"Plant response rating, Wheat",wheat [11]; [26],30
same,"Plant response rating, Barnyardgrass",barnyardgrass [12]; [27],70
same,"Plant response rating, Barnyardgrass",barnyardgrass [12]; [28],40
same,"Plant response rating, Blackgrass",blackgrass [13]; [27],90
same,"Plant response rating, Blackgrass",blackgrass [13]; [28],40
same,"Plant response rating, Corn",corn [14]; [27],90
same,"Plant response rating, Corn",corn [14]; [28],70
same,"Plant response rating, Foxtail, Green",green foxtail [15]; [27],80
same,"Plant response rating, Foxtail, Green",green foxtail [15]; [28],70
same,"Plant response rating, Kochia",kochia [16]; [27],100
same,"Plant response rating, Kochia",kochia [16]; [28],90
same,"Plant response rating, Oat, Wild","oat, wild [17]; [27]",60
same,"Plant response rating, Oat, Wild","oat, wild [17]; [28]",50
same,"Plant response rating, Pigweed, Palmer","pigweed, palmer [18]; [27]",100
same,"Plant response rating, Pigweed, Palmer","pigweed, palmer [18]; [28]",90
same,"Plant response rating, Ragweed",ragweed [19]; [29],70
same,"Plant response rating, Ryegrass, Italian","ryegrass, Italian [20]; [29]",60
same,"Plant response rating, Soybean",soybean [21]; [29],100
same,"Plant response rating, Wheat",wheat [22]; [29],40
same,"Plant response rating, Galium",galium; [27],100
same,"Plant response rating, Galium",galium; [28],100
same,"Plant response rating, Horseweed",horseweed; [27],60
same,"Plant response rating, Horseweed",horseweed; [28],50
same,"Plant response rating, Barnyardgrass (Flood)",barnyardgrass [23],0
same,"Plant response rating, Ducksalad (Flood)",ducksalad,0
same,"Plant response rating, Rice (Flood)",rice,0
same,"Plant response rating, Sedge, Umbrella (Flood)","sedge, umbrella",0
COC[C@H]1CN(C(=O)c2cc(-n3cnc(C4CCC4)n3)ccc2C)c2cccc(Cl)c2O1 [Compound 267],"Plant response rating, Barnyardgrass",barnyardgrass [1]; [30],80
same,Barnyardgrass plant response rating,barnyardgrass [1]; [31],60
same,"Plant response rating, Blackgrass",blackgrass [2]; [30],60
same,Blackgrass plant response rating,blackgrass [2]; [31],20
same,Corn plant response rating,corn [3]; 500 g ai/ha,10
same,Corn plant response rating,"corn [3]; Test C, 125 g ai/ha",0
same,"Foxtail, Green plant response rating",green foxtail [4]; 500 g ai/ha,100
same,"Foxtail, Green plant response rating","green foxtail [4]; Test C, 125 g ai/ha",100
same,Kochia plant response rating,kochia [5]; 500 g ai/ha,90
same,Kochia plant response rating,"kochia [5]; Test C, 125 g ai/ha",90
same,"Oat, Wild plant response rating","oat, wild [6]; 500 g ai/ha",60
same,"Oat, Wild plant response rating","oat, wild [6]; Test C, 125 g ai/ha",40
same,"Pigweed, Palmer plant response rating","pigweed, palmer [7]; 500 g ai/ha",100
same,"Pigweed, Palmer plant response rating","pigweed, palmer [7]; Test C, 125 g ai/ha",90
same,Ragweed plant response rating,ragweed [8]; 500 g ai/ha,60
same,Ragweed plant response rating,"ragweed [8]; Test C, 125 g ai/ha",40
same,"Ryegrass, Italian plant response rating","ryegrass, Italian [9]; 500 g ai/ha",90
same,"Ryegrass, Italian plant response rating","ryegrass, Italian [9]; Test C, 125 g ai/ha",70
same,Soybean plant response rating,soybean [10]; 500 g ai/ha,90
same,Soybean plant response rating,"soybean [10]; Test C, 125 g ai/ha",90
same,Wheat plant response rating,wheat [11]; 500 g ai/ha,30
same,Wheat plant response rating,"wheat [11]; Test C, 125 g ai/ha",20
same,"Plant response rating, Barnyardgrass",barnyardgrass [12]; [32],60
same,"Plant response rating, Barnyardgrass",barnyardgrass [12]; [33],90
same,"Plant response rating, Blackgrass",blackgrass [13]; [32],30
same,"Plant response rating, Blackgrass",blackgrass [13]; [33],50
same,"Plant response rating, Corn",corn [14]; [32],50
same,"Plant response rating, Corn",corn [14]; [33],90
same,"Plant response rating, Foxtail, Green",green foxtail [15]; [32],70
same,"Plant response rating, Foxtail, Green",green foxtail [15]; [33],90
same,"Plant response rating, Kochia",kochia [16]; [32],90
same,"Plant response rating, Oat, Wild","oat, wild [17]; [32]",0
same,"Plant response rating, Pigweed, Palmer","pigweed, palmer [18]; [32]",90
same,"Plant response rating, Ragweed",ragweed [19]; [34],70
same,"Plant response rating, Ryegrass, Italian","ryegrass, Italian [20]; [34]",60
same,"Plant response rating, Soybean",soybean [21]; [34],100
same,"Plant response rating, Wheat",wheat [22]; [34],20
same,"Plant response rating, Galium",galium; [32],100
same,"Plant response rating, Galium",galium; [33],100
same,"Plant response rating, Horseweed",horseweed; [32],60
same,"Plant response rating, Horseweed",horseweed; [33],50
same,"Plant response rating, Barnyardgrass (Flood)",barnyardgrass [23],35
same,"Plant response rating, Ducksalad (Flood)",ducksalad,50
same,"Plant response rating, Rice (Flood)",rice,25
same,"Plant response rating, Sedge, Umbrella (Flood)","sedge, umbrella",98
